Experimental data reported in article PMC6723587 (Toxins, 2019).
Like-named read-outs stand apart in the source and are kept apart here.

Key:
[1] = cited from earlier work
[2] = in vivo
[3] = for the sum of DON, DON3G, 3-ADON and 15-ADON; EFSA; cited from earlier work
[4] = pigs, oral single dose DON3G 56 µg/kg bw; cited from earlier work
[5] = in vivo; remark: listed apart in the source
[6] = pigs, cited from earlier work
[7] = system: human cytosolic beta-glucosidases; conditions: in vitro incubation; cited from earlier work
[8] = oral single dose DON3G 116 µg/kg bw

For `C=C1[C@@H]2O[C@@H]3C=C(C)C(=O)[C@@H](O)[C@]3(CO)[C@@]1(C)C[C@H]2O` [DOM-1, de-epoxy-deoxynivalenol], the “part of total DON3G recovered in urine” value ([1]; after administration of DON3G) is listed as “approximately 7%” and the detection in urine [2] is listed as “Neither DON3G nor DOM-1 was detected”.

For `CC1=C[C@H]2O[C@@H]3[C@H](O)C[C@](C)([C@@]2(CO)[C@H](O)C1=O)[C@]31CO1` [DON, deoxynivalenol], the “tolerable daily intake (group-TDI)” value [3] is listed as 1 µg/kg body weight (bw)/day, the “Fabs (fraction absorbed)” value ([2]; both, human, po) is listed as 0.56 and the “maximum percentage absorbed in the volunteers” value ([2]; both, human, po) is listed as 98%. The “percentage absorbed, variation among the volunteers” value ([2]; both, human, po) was 30-98%.

In the case of `CC1=C[C@H]2O[C@@H]3[C@H](O[C@@H]4O[C@H](CO)[C@@H](O)[C@H](O)[C@H]4O)C[C@](C)([C@@]2(CO)[C@H](O)C1=O)[C@]31CO1` [DON3G, deoxynivalenol-3-glucoside], the “detection in systemic plasma and vena porta plasma” value [4] is listed as “could not be detected”, the “urine sample with the maximum excreted amount” value [5] is listed as “first voided urine sample” and the “Fabs (fraction absorbed)” value ([5]; po) is listed as 0.53. The “Ke (excretion rate constant)” value ([5]; po) was 0.018, the “maximum percentage absorbed in the volunteers” value ([5]; po) was 84% and the “part absorbed as glucoside, % of the oral dose of DON3G” value ([5]; po) was less than 5%. The “percentage absorbed, variation among the volunteers” value ([5]; po) was 29-84%, the “total amount excreted unchanged in urine, % of the administered dose” value ([5]; po) was 1-5% and the “detectability in urine twelve hours after administration” value ([1]; single dose of DON3G) was “not detectable”. The “tolerable daily intake (group-TDI)” value [3] was 1 µg/kg body weight (bw)/day, the detection in urine [2] was “Neither DON3G nor DOM-1 was detected” and the “part of the dose excreted in urine during the first 8 h” value [6, 8] was “approximately 2.5%”. For the same molecule, the “part of the dose excreted in urine during the rest of the 24-hour collection period” value [6, 8] was 1%, the “presence in urine after oral administration” value [6] was “found in urine” and the “hydrolysis by human cytosolic beta-glucosidases” value [7] was “did not hydrolyse”.

In the case of `CC(=O)OC[C@]12[C@H](O)C(=O)C(C)=C[C@H]1O[C@@H]1[C@H](O)C[C@@]2(C)[C@]12CO2` [15-ADON, 15-acetyldeoxynivalenol], the “tolerable daily intake (group-TDI)” value [3] is given as 1 µg/kg body weight (bw)/day.

For `CC(=O)O[C@@H]1C[C@]2(C)[C@@]3(CO)[C@H](O)C(=O)C(C)=C[C@H]3O[C@H]1[C@@]21CO1` [3-ADON, 3-acetyldeoxynivalenol], the “tolerable daily intake (group-TDI)” value [3] is given as 1 µg/kg body weight (bw)/day.
